Values quoted from earlier work, collected in article PMC8354143, “Cy3-RgIA-5727 Labels and Inhibits α9-Containing nAChRs of Cochlear Hair Cells” (Frontiers in Cellular Neuroscience, 2021).

What was measured:
[1] = test system: α9-containing nAChRs
[2] = test system: voltage-gated calcium channels in the efferent terminals

Substance | antagonism of α9-containing nAChRs [1] | time course of block of voltage-gated calcium channels [2] [min]
α-Conotoxin-RgIA | specific and potent antagonist of α9-containing nAChRs | –
ω-conotoxin GVIA | – | 15 to 20
